Test results taken from ChEMBL document CHEMBL1134094, “Cell permeability as a parameter for lead generation in the protein Tyrosine kinase inhibition field” (2001).

Key:
Caco-2 [1] = assay: Cell membrane permeability for the compound determined by human Caco-2 monolayer assay (10e-5 cm/min); format: functional
Caco-2 [2] = assay: Substrate affinity was determined; passive; format: functional, cell-based; settings: Homo sapiens
Caco-2 [3] = assay: Computed polar surface area (PSA) for the compound […]; format: functional

Row | SMILES | Pm (Caco-2 [1]) | Affinity (Caco-2 [2]) | 3D PSA (Caco-2 [3])
1 | COc1ccc(-c2cn(Cc3ccccc3)c3ncnc(N)c23)cc1 | 78.2 10e-5*cm/min | passive | 58.2
2 | COc1ccc(Cn2cc(-c3ccc(OC)cc3)c3nc(O)ccc32)cc1 | 83 10e-5*cm/min | passive | 55.1
3 | COc1ccc(-c2cn(Cc3ccccc3)c3ccc(O)nc23)cc1 | 90.5 10e-5*cm/min | passive | 45
4 | COc1ccc(Cn2cc(-c3ccc(OC)cc3)c3c(N)ncnc32)cc1 | 61.9 10e-5*cm/min | passive | 69.2
5 | Oc1ccc2c(n1)c(-c1ccccc1)cn2Cc1ccccc1 | – | – | 33.4
6 | Nc1ncnc2c1c(-c1ccccc1)cn2Cc1ccccc1 | – | – | 46.6
